24 compounds from US11440913B2, “Aminoimidazopyridazines as kinase inhibitors” (BRISTOL-MYERS SQUIBB COMPANY, priority 2017, dated 2022) can be followed below.

In assay [1] the target is His-GST-TVMV-hRIPK1(1-324) (Homo sapiens (Human), UniProt Q13546). Kind of assay: RIPK1 HTRF Binding Assay. The settings on record: HTRF binding, 1 h at rt; read-out: RIPK1 (IC50). In short, it runs like this: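 HTRF probe-displacement binding: 1 nM His-GST-TVMV-hRIPK1(1-324) (baculovirus construct), 90.6 nM probe, 0.2 nM anti-GST-Tb in 20 mM HEPES, 10 mM MgCl2, 0.015% Brij-35, 4 mM DTT, 0.05 mg/mL BSA. Incubated 1 h at rt; FRET 520/495 nm ratio, inhibition relative to DMSO-only wells.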
Chain of His-GST-TVMV-hRIPK1(1-324) (Q13546 1-324): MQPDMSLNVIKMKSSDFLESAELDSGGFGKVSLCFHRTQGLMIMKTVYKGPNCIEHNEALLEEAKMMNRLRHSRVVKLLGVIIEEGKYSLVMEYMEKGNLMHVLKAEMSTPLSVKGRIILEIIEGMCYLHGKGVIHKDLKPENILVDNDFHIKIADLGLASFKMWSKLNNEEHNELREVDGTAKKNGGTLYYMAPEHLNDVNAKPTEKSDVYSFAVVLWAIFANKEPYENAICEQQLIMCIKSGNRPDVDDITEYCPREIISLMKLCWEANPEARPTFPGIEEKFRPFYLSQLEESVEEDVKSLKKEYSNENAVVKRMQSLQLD
(In general: In TR-FRET formats the signal depends on donor and acceptor labels being close together.)

Assay [2] deals with MLKL phosphorylation in HT29-L23 human colorectal adenocarcinoma cells. Kind of assay: MLKL Phosphorylation High-Content Assay. The settings on record: Homo sapiens, 6 h, necroptosis induced with TNFα, SMAC mimetic and Z-VAD, read-out: pMLKL (IC50). The class given is cell-based. In a few lines: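 HT29-L23 cells pretreated 30 min at 37 °C with compound (6.25 to 0.106 μM final), then necroptosis induced with TNFα 35 ng/mL, SMAC mimetic 700 nM and Z-VAD 140 nM for 6 h. Fixed cells immunostained for MLKL pS358 and imaged; IC50 and Ymax from 4-parameter logistic fit.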

Consider `CC(=O)Nc1cn2nc(-c3ccc(Cl)c(C(=O)NCC[C@@H](O)c4ccc(Cl)cc4)c3)ccc2n1` [Example 386, 2-chloro-N-[(3R)-3-(4-chlorophenyl)-3-hydroxypropyl]-5-{2-acetamidoimidazo [1,2-b]pyridazin-6-yl}benzamide], for which the IC50 in assay [1] is 0.005 µM; in assay [2] it was 0.013 µM.
In the same order, the values of `CC(=O)Nc1cn2nc(-c3ccc(Cl)c(C(=O)NCc4cc(F)ccc4C(=O)N4CCC(F)(F)C4)c3)ccc2n1` [Example 387, 2-chloro-N-{[2-(3,3-difluoropyrrolidine-1-carbonyl)-5-fluorophenyl]methyl}-5-{2-acetamidoimidazo [1,2-b]pyridazin-6-yl}benzamide] are 0.008 µM and 0.005 µM.
Taken in the same sequence, the figures for `CC(=O)Nc1cn2nc(-c3ccc(Cl)c(C(=O)N[C@H](C)c4cc(OC(F)(F)F)ccc4F)c3F)ccc2n1` [Example 388, 6-chloro-3-{2-acetamidoimidazo [1,2-b]pyridazin-6-yl}-2-fluoro-N-[(1R)-1-[2-fluoro-5-(trifluoromethoxy)phenyl]ethyl] benzamide] were 0.007 µM and 0.002 µM.
Taken in the same sequence, the figures for `CC(=O)Nc1cn2nc(-c3ccc(Cl)c(C(=O)NCc4cc(-c5cnn(C)c5)ccc4F)c3F)ccc2n1` [Example 389, 6-chloro-3-{2-acetamidoimidazo [1,2-b]pyridazin-6-yl}-2-fluoro-N-{[2-fluoro-5-(1-methyl-1H-pyrazol-4-yl)phenyl]methyl} benzamide] were 0.004 µM and 0.008 µM.
As to `CC(=O)Nc1cn2nc(-c3ccc(Cl)c(C(=O)NCC[C@H](O)c4ccc(Cl)cc4)c3F)ccc2n1` [Example 390, 6-chloro-N-[(3S)-3-(4-chlorophenyl)-3-hydroxypropyl]-3-{2-acetamidoimidazo [1,2-b]pyridazin-6-yl}-2-fluorobenzamide], the figures for the IC50 in assay [1] and in assay [2] were 0.005 µM and 0.003 µM, respectively.
In the same order, the values of `CC(=O)Nc1cn2nc(-c3ccc(Cl)c(C(=O)NCc4ccc(OC(F)(F)F)cc4)c3F)ccc2n1` [Example 391, 6-chloro-3-{2-acetamidoimidazo [1,2-b]pyridazin-6-yl}-2-fluoro-N-{[4-(trifluoromethoxy)phenyl]methyl} benzamide] are 0.105 µM and 0.274 µM.
As to `CC(=O)Nc1cn2nc(-c3cc(C(=O)N[C@H](C)c4cc(OC(F)(F)F)ccc4F)c(Cl)cc3F)ccc2n1` [Example 392, 2-chloro-5-{2-acetamidoimidazo [1,2-b]pyridazin-6-yl}-4-fluoro-N-[(1R)-1-[2-fluoro-5-(trifluoromethoxy)phenyl]ethyl] benzamide], the IC50 in assay [1] came to 0.036 µM; in assay [2], 0.072 µM.
As for `CC(=O)Nc1cn2nc(-c3ccc(C)c(C(=O)NCc4cc(OC(F)(F)F)ccc4F)c3)ccc2n1` [Example 394, 5-{2-acetamidoimidazo [1,2-b]pyridazin-6-yl}-N-{[2-fluoro-5-(trifluoromethoxy)phenyl]methyl}-2-methylbenzamide], the IC50 in assay [1] and in assay [2] was 0.003 µM throughout.
In the case of `Cc1ccc(-c2ccc3nc(NC(=O)[C@H](C)O)cn3n2)cc1C(=O)NCc1cc(OC(F)(F)F)ccc1F` [Example 395, (S)-N-(2-fluoro-5-(trifluoromethoxy)benzyl)-5-(2-(2-hydroxypropanamido)imidazo[1,2-b]pyridazin-6-yl)-2-methylbenzamide], the IC50 in assay [1] amounted to 0.007 µM; in assay [2], 0.025 µM.
In the same order, the values of `CC(=O)Nc1cn2nc(-c3ccc(C)c(C(=O)N[C@H](C)c4cc(OC(F)(F)F)ccc4F)c3)ccc2n1` [Example 396, (R)-5-(2-acetamidoimidazo [1,2-b]pyridazin-6-yl)-N-(1-(2-fluoro-5-(trifluoromethoxy)phenyl)ethyl)-2-methylbenzamide] are 0.001 µM and 0.007 µM.
Taken in the same sequence, the figures for `CC(=O)Nc1cn2nc(-c3ccc(C)c(C(=O)NCC[C@@H](O)c4ccc(Cl)cc4)c3)ccc2n1` [Example 397, N-[(3R)-3-(4-chlorophenyl)-3-hydroxypropyl]-5-{2-acetamidoimidazo [1,2-b]pyridazin-6-yl}-2-methylbenzamide] were 0.003 µM and 0.003 µM.
In the same order, the values of `CC(=O)Nc1cn2nc(-c3ccc(C)c(C(=O)NCC[C@H](O)c4ccc(Cl)cc4)c3)ccc2n1` [Example 398, N-[(3S)-3-(4-chlorophenyl)-3-hydroxypropyl]-5-{2-acetamidoimidazo [1,2-b]pyridazin-6-yl}-2-methylbenzamide] are 0.005 µM and 0.002 µM.
With `CC(=O)Nc1cn2nc(-c3ccc(C)c(C(=O)NCC(O)COc4ccccc4)c3)ccc2n1` (stereo not drawn) [Example 400, 5-{2-acetamidoimidazo [1,2-b]pyridazin-6-yl}-N-(2-hydroxy-3-phenoxypropyl)-2-methylbenzamide], the IC50 in assay [1] and in assay [2] was 0.011 µM throughout.
As for `CC(=O)Nc1cn2nc(-c3ccc(C)c(C(=O)NC[C@H]4C[C@@H]4c4ccc(F)cc4)c3)ccc2n1` [Example 401, 5-{2-acetamidoimidazo [1,2-b]pyridazin-6-yl}-N-{[(1S, 2S)-2-(4-fluorophenyl)cyclopropyl]methyl}-2-methylbenzamide], the IC50 in assay [1] was 0.105 µM; in assay [2] it was 0.077 µM.
In the same order, the values of `CC(=O)Nc1cn2nc(-c3ccc(C)c(C(=O)NCc4c(F)cccc4-c4cnn(C)c4)c3)ccc2n1` [Example 402, 5-{2-acetamidoimidazo [1,2-b]pyridazin-6-yl}-N-{[2-fluoro-6-(1-methyl-1H-pyrazol-4-yl)phenyl]methyl}-2-methylbenzamide] are 0.056 µM and 0.094 µM.
Taken in the same sequence, the figures for `CC(=O)Nc1cn2nc(-c3ccc(C)c(C(=O)NCc4cc(F)ccc4-c4cnn(C)c4)c3)ccc2n1` [Example 403, 5-{2-acetamidoimidazo [1,2-b]pyridazin-6-yl}-N-{[5-fluoro-2-(1-methyl-1H-pyrazol-4-yl)phenyl]methyl}-2-methylbenzamide] were 0.067 µM and 0.262 µM.
Taken in the same sequence, the figures for `CC(=O)Nc1cn2nc(-c3ccc(C)c(C(=O)NCc4cc(C(=O)N5CC(F)(F)C5)ccc4F)c3)ccc2n1` [Example 404, N-{[5-(3,3-difluoroazetidine-1-carbonyl)-2-fluorophenyl]methyl}-5-{2-acetamidoimidazo [1,2-b]pyridazin-6-yl}-2-methylbenzamide] were 0.052 µM and 0.259 µM.
As for `CC(=O)Nc1cn2nc(-c3ccc(C)c(C(=O)NCc4ccc(F)cc4C(=O)N4CCC(F)(F)C4)c3)ccc2n1` [Example 405, N-{[2-(3,3-difluoropyrrolidine-1-carbonyl)-4-fluorophenyl]methyl}-5-{2-acetamidoimidazo [1,2-b]pyridazin-6-yl}-2-methylbenzamide], the IC50 is 0.014 µM in assay [1] and 0.099 µM in assay [2].
For the compound `CC(=O)Nc1cn2nc(-c3ccc(C)c(C(=O)NCc4cc(C(=O)N5CCC(C)(C)C5)ccc4F)c3)ccc2n1` [Example 406, N-{[5-(3,3-dimethylpyrrolidine-1-carbonyl)-2-fluorophenyl]methyl}-5-{2-acetamidoimidazo [1,2-b]pyridazin-6-yl}-2-methylbenzamide], the figures for the IC50 in assay [1] and in assay [2] were 0.163 µM and 0.454 µM, respectively.
In the same order, the values of `CC(=O)Nc1cn2nc(-c3ccc(C)c(C(=O)NCc4cc(F)cc(F)c4C(=O)N4CC[C@H](O)C4)c3)ccc2n1` [Example 407, N-({3,5-difluoro-2-[(3S)-3-hydroxypyrrolidine-1-carbonyl]phenyl}methyl)-5-{2-acetamidoimidazo [1,2-b]pyridazin-6-yl}-2-methylbenzamide] are 0.037 µM and 0.388 µM.
In the same order, the values of `CC(=O)Nc1cn2nc(-c3ccc(C)c(C(=O)NCc4cc(F)ccc4C(=O)N4CCCCC4)c3)ccc2n1` [Example 408, 5-{2-acetamidoimidazo [1,2-b]pyridazin-6-yl}-N-{[5-fluoro-2-(piperidine-1-carbonyl)phenyl]methyl}-2-methylbenzamide] are 0.008 µM and 0.008 µM.
Taken in the same sequence, the figures for `CC(=O)Nc1cn2nc(-c3ccc(C)c(C(=O)NCc4cc(-c5cnn(C6CC6)c5)ccc4F)c3F)ccc2n1` [Example 409, N-{[5-(1-cyclopropyl-1H-pyrazol-4-yl)-2-fluorophenyl]methyl}-3-{2-acetamidoimidazo [1,2-b]pyridazin-6-yl}-2-fluoro-6-methylbenzamide] were 0.002 µM and 0.013 µM.
For `CC(=O)Nc1cn2nc(-c3ccc(C)c(C(=O)NCc4cc(F)ccc4-c4cnn(C5CC5)c4)c3F)ccc2n1` [Example 410, N-{[2-(1-cyclopropyl-1H-pyrazol-4-yl)-5-fluorophenyl]methyl}-3-{2-acetamidoimidazo [1,2-b]pyridazin-6-yl}-2-fluoro-6-methylbenzamide], the IC50 in assay [1] was 0.039 µM; in assay [2], 0.077 µM.
Taken in the same sequence, the figures for `CC(=O)Nc1cn2nc(-c3ccc(C)c(C(=O)NCc4ccc(F)c(F)c4C(=O)N4CCC(F)(F)C4)c3F)ccc2n1` [Example 411, N-{[2-(3,3-difluoropyrrolidine-1-carbonyl)-3,4-difluorophenyl]methyl}-3-{2-acetamidoimidazo [1,2-b]pyridazin-6-yl}-2-fluoro-6-methylbenzamide] were 0.009 µM and 0.025 µM.

One may read the IC50 as the concentration at which inhibition is half-maximal.
